pKi: −log10 of the molar value. Where a name gives a salt, the structure may show the parent alone.
Target: T1, human V3 receptor (Homo sapiens, UniProt P47901)
T1 construct: expressed in transfected cells
T1 sequence (P47901 1-424): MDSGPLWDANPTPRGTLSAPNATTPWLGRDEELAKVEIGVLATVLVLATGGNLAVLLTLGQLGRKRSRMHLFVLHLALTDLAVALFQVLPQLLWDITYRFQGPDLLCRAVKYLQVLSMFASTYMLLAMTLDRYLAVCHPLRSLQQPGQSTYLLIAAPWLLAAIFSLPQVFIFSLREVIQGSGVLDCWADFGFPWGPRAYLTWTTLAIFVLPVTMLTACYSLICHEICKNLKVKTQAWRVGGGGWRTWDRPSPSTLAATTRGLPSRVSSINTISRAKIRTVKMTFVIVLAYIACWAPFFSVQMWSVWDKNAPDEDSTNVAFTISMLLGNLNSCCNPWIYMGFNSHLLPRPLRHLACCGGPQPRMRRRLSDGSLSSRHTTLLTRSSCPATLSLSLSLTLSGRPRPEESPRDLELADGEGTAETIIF
Experiment: [3H]AVP binding to CHO cells stably expressing the human V3 receptor
Conditions: Ki from displacement of [3H]AVP (2.5×10^-9 mol.L^-1)
Experimental: Chinese Hamster Ovary (CHO) cells stably expressing the human V3 receptor were incubated to equilibrium with the test compound (at a final assay concentration of 10^−11 mol.L^−1 to 10^−5 mol.L^−1) and [^3H]AVP (at a final assay concentration of 2.5×10^−9 mol.L^−1). […] After washing with ice-cold phosphate buffered saline (PBS), scintillation fluid was added and the plates counted on a Topcount NXT apparatus.
A sigmoidal dose response curve (non-linear regression, variable slope) was plotted as concentration of test compound (mol.L^−1) against percentage specific binding of [^3H]AVP and a Ki value was calculated. Each determination was carried out in triplicate and repeated on at least 3 separate occasions

| pKi | SMILES |
| --- | --- |
| 7.00 to 8.00 | CC(C)NC(=O)Cn1c(-c2cc(F)c(F)c(F)c2)nc2ccc(OCCCN3CCCCC3)cc2c1=O [EXAMPLE 1f, N-Isopropyl-2-[4-oxo-6-(3-piperidin-1-ylpropoxy)-2-(3,4,5-trifluorophenyl)-4H-quinazolin-3-yl]acetamide] |
| > 8.00 | COc1cccc(-c2nc3ccc(OCCCN4CCCCC4)cc3c(=O)n2CC(=O)NC(C)C)n1 [EXAMPLE 1h, N-Isopropyl-2-[2-(6-methoxypyridin-2-yl)-4-oxo-6-(3-piperidin-1-ylpropoxy)-4H-quinazolin-3-yl]acetamide] |
| > 8.00 | CC(C)(C)NC(=O)Cn1c(-c2cccc(Cl)c2)nc2ccc(OCCCN3CCCCC3)cc2c1=O [EXAMPLE 2f, N-tert-Butyl-2-[2-(3-chlorophenyl)-4-oxo-6-(3-piperidin-1-ylpropoxy)-4H-quinazolin-3-yl]acetamide] |
| > 8.00 | COc1cc(-c2nc3ccc(OCCCN4CCC(O)CC4)cc3c(=O)n2CC(=O)NC(C)C)ccc1F [EXAMPLE 2p, 2-{2-(4-Fluoro-3-methoxyphenyl)-6-[3-(4-hydroxypiperidin-1-yl)propoxy]-4-oxo-4H-quinazolin-3-yl}-N-isopropylacetamide] |
| > 8.00 | COc1cccc(-c2nc3cc(C)c(OCCCN4CCCCC4)cc3c(=O)n2CC(=O)NC(C)C)c1 [EXAMPLE 2w, N-Isopropyl-2-[2-(3-methoxyphenyl)-7-methyl-4-oxo-6-(3-piperidin-1-ylpropoxy)-4H-quinazolin-3-yl]acetamide] |
| > 8.00 | CC(C)NC(=O)Cn1c(-c2cccc(Cl)c2)nc2ccc(OCCCN3CCCCC3)cc2c1=O [EXAMPLE 3a, 2-[2-(3-Chlorophenyl)-4-oxo-6-(3-piperidin-1-ylpropoxy)-4H-quinazolin-3-yl]-N-isopropylacetamide hydrochloride] |
| > 8.00 | COc1cc(OC)cc(-c2nc3ccc(OCCCN4CCOCC4)cc3c(=O)n2CC(=O)NCC2CC2)c1 [EXAMPLE 3k, N-Cyclopropylmethyl-2-[2-(3,5-dimethoxyphenyl)-6-(3-morpholin-4-ylpropoxy)-4-oxo-4H-quinazolin-3-yl]acetamide] |
| 7.00 to 8.00 | COc1ccc(CN(CCCN2CCCCC2)c2ccc3nc(-c4cccc(OC)c4)n(CC(=O)NC(C)C)c(=O)c3c2)cc1 [EXAMPLE 3r, N-Isopropyl-2-[6-[(4-methoxybenzyl)-(3-piperidin-1-ylpropyl)amino]-2-(3-methoxyphenyl)-4-oxo-4H-quinazolin-3-yl]acetamide] |
| 7.00 to 8.00 | COc1cccc(-c2nc3ccc(SCCCN4CCCCC4)cc3c(=O)n2CC(=O)NC(C)C)c1 [EXAMPLE 3t, N-Isopropyl-2-[2-(3-methoxyphenyl)-4-oxo-6-(3-piperidin-1-ylpropylsulfanyl)-4H-quinazolin-3-yl]acetamide] |
| > 8.00 | CC(C)NC(=O)Cn1c(-c2cccc(F)c2)nc2ccc(OC[C@@H](C)CN3CCOCC3)cc2c1=O [EXAMPLE 4g, (S)-(+)-2-[2-(3-Fluorophenyl)-6-(2-methyl-3-morpholin-4-ylpropoxy)-4-oxo-4H-quinazolin-3-yl]-N-isopropylacetamide] |
| 7.00 to 8.00 | COc1cccc(-c2nc3ccc(OC[C@@H](C)CN4CCC4)cc3c(=O)n2CC(=O)NC(C)C)c1 [EXAMPLE 4i, (S)-(+)-2-[6-(3-Azetidin-1-yl-2-methylpropoxy)-2-(3-methoxyphenyl)-4-oxo-4H-quinazolin-3-yl]-N-isopropylacetamide] |
| > 8.00 | CCCNC(=O)Cn1c(-c2cccc(OC)c2)nc2ccc(OC[C@@H](C)CN3CCCCC3)cc2c1=O [EXAMPLE 4n, (S)-(+)-2-[2-(3-Methoxyphenyl)-6-(2-methyl-3-piperidin-1-ylpropoxy)-4-oxo-4H-quinazolin-3-yl]-N-propylacetamide] |
| 6.00 to 7.00 | O=C(Cn1c(-c2ccccc2)nc2ccc(OCCCN3CCCCCC3)cc2c1=O)NCC1CC1 [EXAMPLE 4q, 2-[6-(3-Azepan-1-ylpropoxy)-4-oxo-2-phenyl-4H-quinazolin-3-yl]-N-cyclopropylmethylacetamide] |
| > 8.00 | COc1cccc(-c2nc3ccc(-c4cc(CN(C)C)ccc4F)cc3c(=O)n2CC(=O)NC(C)C)c1 [EXAMPLE 6a, 2-[6-(5-Dimethylaminomethyl-2-fluorophenyl)-2-(3-methoxyphenyl)-4-oxo-4H-quinazolin-3-yl]-N-isopropylacetamide] |
| 7.00 to 8.00 | COc1cccc(-c2nc3ccc(-c4cccc(CN(C)C)n4)cc3c(=O)n2CC(=O)NC(C)C)c1 [EXAMPLE 6b, 2-[6-(6-Dimethylaminomethylpyridin-2-yl)-2-(3-methoxyphenyl)-4-oxo-4H-quinazolin-3-yl]-N-isopropylacetamide] |
| 7.00 to 8.00 | COc1cccc(-c2nc3ccc(-c4cccc(CN(C)CC(C)C)c4)cc3c(=O)n2CC(=O)NC(C)C)c1 [EXAMPLE 7p, 2-[6-{3-[(Isobutylmethylamino)methyl]phenyl}-2-(3-methoxyphenyl)-4-oxo-4H-quinazolin-3-yl]-N-isopropylacetamide] |
| > 8.00 | COc1cccc(-c2nc3ccc(-c4cccc(CN5CCOCC5)c4)cc3c(=O)n2CC(=O)NC(C)C)c1 [EXAMPLE 7u, N-Isopropyl-2-[2-(3-methoxyphenyl)-6-(3-morpholin-4-ylmethylphenyl)-4-oxo-4H-quinazolin-3-yl]acetamide] |
| 6.00 to 7.00 | C=CCNC(=O)Cn1c(-c2ccccc2)nc2ccc(-c3cccc(CN4CCCCC4)c3)cc2c1=O [EXAMPLE 7x, N-Allyl-2-[4-oxo-2-phenyl-6-(3-piperidin-1-ylmethylphenyl)-4H-quinazolin-3-yl]acetamide] |
| 7.00 to 8.00 | COc1cccc(-c2nc3ccc(-c4ccc(CN5CCC5)o4)cc3c(=O)n2CC(=O)NC(C)C)c1 [EXAMPLE 9a, 2-[6-(5-Azetidin-1-ylmethylfuran-2-yl)-2-(3-methoxyphenyl)-4-oxo-4H-quinazolin-3-yl]-N-isopropylacetamide] |
| 7.00 to 8.00 | COc1cccc(-c2nc3ccc(/C=C/CCN4CCOCC4)cc3c(=O)n2CC(=O)NC(C)C)c1 [EXAMPLE 10b, N-Isopropyl-2-[2-(3-methoxyphenyl)-6-(4-morpholin-4-ylbut-1-enyl)-4-oxo-4H-quinazolin-3-yl]acetamide] |
| 7.00 to 8.00 | COc1cccc(-c2nc3ccc(CCCCN4CCCC4)cc3c(=O)n2CC(=O)NC(C)C)c1 [EXAMPLE 11b, N-Isopropyl-2-[2-(3-methoxyphenyl)-4-oxo-6-(4-pyrrolidin-1-ylbutyl)-4H-quinazolin-3-yl]acetamide] |
| 6.00 to 7.00 | COc1cccc(-c2nc3ccc(OCCC4CCCCN4C)cc3c(=O)n2CC(=O)NC(C)C)c1 (stereo not drawn) [EXAMPLE 12a, N-Isopropyl-2-[2-(3-methoxyphenyl)-6-[2-(1-methylpiperidin-2-yl)ethoxy]-4-oxo-4H-quinazolin-3-yl]acetamide] |
| 6.00 to 7.00 | COc1cccc(-c2nc3ccc(NCCCN4CCCCC4)cc3c(=O)n2CC(=O)NC(C)C)c1 [EXAMPLE 13a, N-Isopropyl-2-[2-(3-methoxyphenyl)-4-oxo-6-(3-piperidin-1-ylpropylamino)-4H-quinazolin-3-yl]acetamide] |
| 6.00 to 7.00 | COc1cccc(-c2nc3ccc(OCC4CCCN(C)C4)cc3c(=O)n2CC(=O)NC(C)C)c1 (stereo not drawn) [EXAMPLE 14a, N-Isopropyl-2-[2-(3-methoxyphenyl)-6-(1-methylpiperidin-3-ylmethoxy)-4-oxo-4H-quinazolin-3-yl]acetamide] |

From US7807686B2, “2-(4-oxo-4H-quinazolin-3-yl)acetamides and their use as vasopressin V3 antagonists” (N.V. Organon, priority 2005, dated 2010)
